Measurements published in patent US20240150423A1, “GLP-1 ANALOGUE-MODIFIED DIMERS WITH DIFFERENT CONFIGURATIONS, PREPARATION METHOD THEREOF, AND APPLICATION THEREOF IN TREATMENT OF TYPE II DIABETES” (Nanjing Finepeptide Biopharmaceutical Co.,Ltd, priority 2019, published 2024).
Non-standard residues stand in square brackets, D forms with d. No end group written: not given here. βAib = beta-Aib residue; βAla = NCCC(=O)O

Test system: Normal Kunming (KM) mice
Test: multiple OGTT (mOGTT): hypoglycemic duration after a single administration
Format: in vivo
Settings: monomeric peptides, single injection at the same dose (1.126 nmol), subcutaneous
Outline: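 Tail blood glucose was followed by meter in normal KM mice after one dosing and glucose gavage, at 0, 10, 20, 40, 60 and 120 min. Measurement stopped when the treated mean rose above the NaCl group twice; the period before that is the effective duration.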

Substance | Hypoglycemic
His-βAib-Glu-Gly-Thr-Phe-Thr-Cys-Asp-Val-Ser-Ser-Tyr-Leu-Glu-Gly-Gln-Ala-Ala-Lys[N-ϵ-(N-α-oleoyl-L-γ-glutamyl)]-Glu-Phe-Ile-Ala-Trp-Leu-Val-Arg-Gly-Arg-Gly-NH2 (HXEGTFTCDVSSYLEGQAAXEFIAWLVRGRG; beta-Aib; oleoyl-gamma-Glu on Lys; C-terminal amide; Sequence is synthesized; (2)..(2) Xaa is bAib; (20)..(20) Xaa is 26Lys[N-e-(N-a-oleoyl-L-g-glutamyl)]; (31)..(31) N-terminal) [G8 series 66] | 3 days
His-βAib-Glu-Gly-Thr-Phe-Thr-Ser-Asp-Val-Cys-Ser-Tyr-Leu-Glu-Gly-Gln-Ala-Ala-Lys-Glu-Phe-Ile-Ala-Trp-Leu-Val-Arg-βAib-Arg-NH2 (H[βAib]EGTFTSDVCSYLEGQAAKEFIAWLVR[βAib]R-NH2; also: disulfide-linked homodimer via Cys) [G2 series 16] | 3 days
His-βAib-Glu-Gly-Thr-Phe-Thr-Ser-Asp-Val-Cys-Ser-Tyr-Leu-Glu-Gly-Gln-Ala-Ala-Lys-Glu-Phe-Ile-Ala-Trp-Leu-Val-Lys-βAib-Arg-NH2 (H[βAib]EGTFTSDVCSYLEGQAAKEFIAWLVK[βAib]R-NH2; also: disulfide-linked homodimer via Cys) [G2 series 17] | 3 days
His-βAib-Glu-Gly-Thr-Phe-Thr-Ser-Asp-Val-Cys-Ser-Tyr-Leu-Glu-Gly-Gln-Ala-Ala-Lys[N-ϵ-(N-α-oleoyl)]-Glu-Phe-Ile-Ala-Trp-Leu-Val-Arg-Gly-Arg-Gly-NH2 (HXEGTFTSDVCSYLEGQAAXEFIAWLVRGRG; βAib; oleoyl on Lys; C-terminal amide; Sequence is synthesized; (2)..(2) Xaa is bAib; (20)..(20) Xaa is 26Lys[N-e-(N-a-oleoyl-L-g-glutamyl)]; (31)..(31) N-terminal) [G4 series 30] | 6 days
His-βAib-Glu-Gly-Thr-Phe-Thr-Ser-Asp-Val-Cys-Ser-Tyr-Leu-Glu-Gly-Gln-Ala-Ala-Lys[N-ϵ-(N-α-oleoyl-L-γ-glutamyl)]-Glu-Phe-Ile-Ala-Trp-Leu-Val-Arg-Gly-Arg-Gly-NH2 (HXEGTFTSDVCSYLEGQAAXEFIAWLVRGRG; βAib; oleoyl-γ-glutamyl on Lys; C-terminal amide; Sequence is synthesized; (2)..(2) Xaa is bAib; (20)..(20) Xaa is 26Lys[N-e-(N-a-oleoyl-L-g-glutamyl)]; (31)..(31) N-terminal) [G2 series 15] | 5 days
His-βAib-Glu-Gly-Thr-Phe-Thr-Ser-Asp-Val-Ser-Cys-Tyr-Leu-Glu-Gly-Gln-Ala-Ala-Lys-Glu-Phe-Ile-Ala-Trp-Leu-Val-Arg-βAib-Arg-NH2 (H[βAib]EGTFTSDVSCYLEGQAAKEFIAWLVR[βAib]R-NH2; also: disulfide-linked homodimer via Cys12) [G7 series 54] | 2 days
His-βAib-Glu-Gly-Thr-Phe-Thr-Ser-Asp-Val-Ser-Cys-Tyr-Leu-Glu-Gly-Gln-Ala-Ala-Lys[N-ϵ-(N-α-Palmitoyl-L-γ-glutamyl)]-Glu-Phe-Ile-Ala-Trp-Leu-Val-Lys[N-ϵ-(N-α-Palmitoyl-L-γ-glutamyl)]-Gly-Arg-Gly-NH2 (HXEGTFTSDVSCYLEGQAAXEFIAWLVXGRG; not fully specified; beta-Aib; two palmitoyl-gamma-Glu on Lys; C-terminal amide; Sequence is synthesized; (2)..(2) Xaa is bAib; (20)..(20) Xaa is 26Lys[N-e-(N-a-palmitoyl-L-g-glutamyl)]; (28)..(28) Xaa is 26Lys[N-e-(N-a-palmitoyl-L-g-glutamyl)]; (31)..(31) N-terminal) [G5 series 43] | 3 days
His-βAib-Glu-Gly-Thr-Phe-Thr-Ser-Asp-Val-Ser-Cys-Tyr-Leu-Glu-Gly-Gln-Ala-Ala-Lys[N-ϵ-(N-α-oleoyl)]-Glu-Phe-Ile-Ala-Trp-Leu-Val-Arg-Gly-Arg-Gly-NH2 (HXEGTFTSDVSCYLEGQAAXEFIAWLVRGRG; not fully specified; beta-Aib; oleoyl on Lys side chain; C-terminal amide; Sequence is synthesized; (2)..(2) Xaa is bAib; (20)..(20) Xaa is 26Lys[N-e-(N-a-oleoyl-L-g-glutamyl)]; (31)..(31) N-terminal) [G4 series 38] | 6 days
His-βAib-Glu-Gly-Thr-Phe-Thr-Ser-Asp-Val-Ser-Cys-Tyr-Leu-Glu-Gly-Gln-Ala-Ala-Lys[N-ϵ-(N-α-oleoyl-L-γ-glutamyl)]-Glu-Phe-Ile-Ala-Trp-Leu-Val-Arg-Gly-Arg-Gly-NH2 (HXEGTFTSDVSCYLEGQAAXEFIAWLVRGRG; not fully specified; beta-Aib; oleoyl-gamma-Glu on Lys; C-terminal amide; Sequence is synthesized; (2)..(2) Xaa is bAib; (20)..(20) Xaa is 26Lys[N-e-(N-a-oleoyl-L-g-glutamyl)]; (31)..(31) N-terminal) [G6 series 49] | 5 days
His-βAla-Glu-Gly-Thr-Phe-Thr-Cys-Asp-Val-Ser-Ser-Tyr-Leu-Glu-Gly-Gln-Ala-Ala-Lys-Glu-Phe-Ile-Ala-Trp-Leu-Val-Arg-βAla-Arg-NH2 (H[βAla]EGTFTCDVSSYLEGQAAKEFIAWLVR[βAla]R-NH2; not fully specified; printed as His-βAla-Glu-Gly-Thr-Phe-Thr-Cys-Asp-Val-Ser-Ser-Tyr-Leu-Glu-Gly-Gln-Ala-Ala-Lys-Glu-Phe-Ile-Ala-Trp-Leu-Val-Arg-βAla-Arg-NH2) [G8 series 69] | 2 days
His-βAla-Glu-Gly-Thr-Phe-Thr-Cys-Asp-Val-Ser-Ser-Tyr-Leu-Glu-Gly-Gln-Ala-Ala-Lys[N-ϵ-(N-α-oleoyl-L-γ-glutamyl)]-Glu-Phe-Ile-Ala-Trp-Leu-Val-Arg-Gly-Arg-Gly-NH2 (HXEGTFTCDVSSYLEGQAAXEFIAWLVRGRG; beta-amino acid; oleoyl-gamma-Glu on Lys; C-terminal amide; Sequence is synthesized; (2)..(2) Xaa is bAla; (20)..(20) Xaa is 26Lys[N-e-(N-a-oleoyl-L-g-glutamyl)]; (31)..(31) N-terminal) [G8 series 68] | 4 days
His-βAla-Glu-Gly-Thr-Phe-Thr-Ser-Asp-Val-Cys-Ser-Tyr-Leu-Glu-Gly-Gln-Ala-Ala-Lys-Glu-Phe-Ile-Ala-Trp-Leu-Val-Arg-βAla-Arg-NH2 (H[βAla]EGTFTSDVCSYLEGQAAKEFIAWLVR[βAla]R-NH2; not fully specified; printed as His-βAla-Glu-Gly-Thr-Phe-Thr-Ser-Asp-Val-Cys-Ser-Tyr-Leu-Glu-Gly-Gln-Ala-Ala-Lys-Glu-Phe-Ile-Ala-Trp-Leu-Val-Arg-βAla-Arg-NH2) [G2 series 19] | 3 days
His-βAla-Glu-Gly-Thr-Phe-Thr-Ser-Asp-Val-Cys-Ser-Tyr-Leu-Glu-Gly-Gln-Ala-Ala-Lys[N-ϵ-(N-α-oleoyl)]-Glu-Phe-Ile-Ala-Trp-Leu-Val-Arg-Gly-Arg-Gly-NH2 (HXEGTFTSDVCSYLEGQAAXEFIAWLVRGRG; β-amino acid; oleoyl on Lys; C-terminal amide; Sequence is synthesized; (2)..(2) Xaa is bAla; (20)..(20) Xaa is 26Lys[N-e-(N-a-oleoyl-L-g-glutamyl)]; (31)..(31) N-terminal) [G4 series 31] | 5 days
His-βAla-Glu-Gly-Thr-Phe-Thr-Ser-Asp-Val-Cys-Ser-Tyr-Leu-Glu-Gly-Gln-Ala-Ala-Lys[N-ϵ-(N-α-oleoyl-L-γ-glutamyl)]-Glu-Phe-Ile-Ala-Trp-Leu-Val-Arg-Gly-Arg-Gly-NH2 (HXEGTFTSDVCSYLEGQAAXEFIAWLVRGRG; β-amino acid; oleoyl-γ-glutamyl on Lys; C-terminal amide; Sequence is synthesized; (2)..(2) Xaa is bAla; (20)..(20) Xaa is 26Lys[N-e-(N-a-oleoyl-L-g-glutamyl)]; (31)..(31) N-terminal) [G2 series 18] | 5 days
His-βAla-Glu-Gly-Thr-Phe-Thr-Ser-Asp-Val-Ser-Cys-Tyr-Leu-Glu-Gly-Gln-Ala-Ala-Lys-Glu-Phe-Ile-Ala-Trp-Leu-Val-Arg-βAla-Arg-NH2 (H[βAla]EGTFTSDVSCYLEGQAAKEFIAWLVR[βAla]R-NH2; also: disulfide-linked homodimer via Cys12) [G7 series 55] | 2 days
His-βAla-Glu-Gly-Thr-Phe-Thr-Ser-Asp-Val-Ser-Cys-Tyr-Leu-Glu-Gly-Gln-Ala-Ala-Lys[N-ϵ-(N-α-Palmitoyl-L-γ-glutamyl)]-Glu-Phe-Ile-Ala-Trp-Leu-Val-Lys[N-ϵ-(N-α-Palmitoyl-L-γ-glutamyl)]-Gly-Arg-Gly-NH2 (HXEGTFTSDVSCYLEGQAAXEFIAWLVXGRG; not fully specified; beta-amino acid; two palmitoyl-gamma-Glu on Lys; amide; Sequence is synthesized; (2)..(2) Xaa is bAla; (20)..(20) Xaa is 26Lys[N-e-(N-a-palmitoyl-L-g-glutamyl)]; (28)..(28) Xaa is 26Lys[N-e-(N-a-palmitoyl-L-g-glutamyl)]; (31)..(31) N-terminal) [G5 series 44] | 2 days
His-βAla-Glu-Gly-Thr-Phe-Thr-Ser-Asp-Val-Ser-Cys-Tyr-Leu-Glu-Gly-Gln-Ala-Ala-Lys[N-ϵ-(N-α-oleoyl)]-Glu-Phe-Ile-Ala-Trp-Leu-Val-Arg-Gly-Arg-Gly-NH2 (HXEGTFTSDVSCYLEGQAAXEFIAWLVRGRG; beta-amino acid; oleoyl on Lys side chain; C-terminal amide; Sequence is synthesized; (2)..(2) Xaa is bAla; (20)..(20) Xaa is 26Lys[N-e-(N-a-oleoyl-L-g-glutamyl)]; (31)..(31) N-terminal) [G4 series 39] | 5 days
